# Measured values taken from patent US9493461B2, “Tetracyclic heterocycle compounds and methods of use thereof for the treatment of hepatitis C” (priority 2013, dated 2016).
# Read-outs that look alike come from different tables or passages of the source.
# Assays:
# [1] = test system: HCV replicon genotype 1a; assay: HCV replicon assay, genotype 1a (cell ELISA for replicon-encoded NS3/4A); assay type: cell-based, hepatitis C virus (HCV)
# Summary of the method: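 Stable G418-selected neomycin-resistant HCV replicon cells were plated with serially diluted compound without G418 and incubated 96 h. After washing and lysis, replicon RNA was measured indirectly by cell ELISA for replicon-encoded NS3/4A; IC50 from four-parameter fit relative to DMSO control.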
# [2] = test system: HCV replicon genotype 1b; assay: HCV replicon assay, genotype 1b (cell ELISA for replicon-encoded NS3/4A); assay type: cell-based, hepatitis C virus (HCV)
# Summary of the method: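 Genotype 1b replicon cells (neomycin-selected, G418 removed for assay) incubated 96 h with compound dilution series. Replication measured by cell ELISA for replicon-encoded NS3/4A after lysis; IC50 from four-parameter fit relative to DMSO control.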
# [3] = Hepatitis C virus, 96 h, read-out: 1a IC50 (nM), genotype 1a replicon cells, 96 hours incubation, NS3/4A ELISA readout, % of DMSO control
# [4] = Hepatitis C virus, 96 h, read-out: 1b IC50 (nM), genotype 1b replicon cells, 96 hours incubation, NS3/4A ELISA readout, % of DMSO control
Compound,"IC50 [1, 3]","IC50 [2, 4]","IC50 ([1]; read-out: 1a IC50, genotype 1a replicon cells, 96 hours incubation, NS3/4A ELISA readout, % of DMSO control)","IC50 ([2]; read-out: 1b IC50, genotype 1b replicon cells, 96 hours incubation, NS3/4A ELISA readout, % of DMSO control)"
CNC(=O)c1c(-c2ccc(F)cc2)oc2cc(N(C)S(C)(=O)=O)c(-c3ccc4nc(CN)n5c6cccc(F)c6cc5c4n3)cc12 [Example 111],4.15 nM,7.79 nM,–,–
CNC(=O)c1c(-c2ccc(F)cc2)oc2cc(N(C)S(C)(=O)=O)c(-c3cc4c(cn3)nc(CN3CCOCC3)n3c5cccc(F)c5cc43)cc12 [Example 112],2.02 nM,3.45 nM,–,–
CNC(=O)c1c(-c2ccc(F)cc2)oc2cc(N(C)S(C)(=O)=O)c(-c3ccc4nc(CN(C)CC(=O)N(C)C)n5c6cccc(F)c6cc5c4n3)cc12 [Example 115],2.19 nM,4.93 nM,–,–
CNC(=O)c1c(-c2ccc(F)cc2)oc2cc(N(C)S(C)(=O)=O)c(-c3ccc4nc(Cn5cncn5)n5c6cccc(F)c6cc5c4n3)cc12 [Example 116],1.88 nM,1.7 nM,–,–
CNC(=O)c1c(-c2ccc(F)cc2)oc2cc(N(C)S(C)(=O)=O)c(-c3cc4c(cn3)nc(CN3CCC(F)(F)C3)n3c5cccc(F)c5cc43)cc12 [Example 117],3.49 nM,5.01 nM,–,–
CNC(=O)c1c(-c2ccc(F)cc2)oc2cc(N(C)S(C)(=O)=O)c(-c3cc4c(cn3)nc(CN3CC(C)(F)C3)n3c5cccc(F)c5cc43)cc12 [Example 118],2.67 nM,4.24 nM,–,–
CNC(=O)c1c(-c2ccc(F)cc2)oc2cc(N(C)S(C)(=O)=O)c(-c3cc4c(cn3)nc(CN3CC(C)(C#N)C3)n3c5cccc(F)c5cc43)cc12 [Example 119],1.74 nM,3.59 nM,–,–
CNC(=O)c1c(-c2ccc(F)cc2)oc2cc(N(C)S(C)(=O)=O)c(-c3ccc4nc(CN5CC(F)C5)n5c6cccc(C#N)c6cc5c4n3)cc12 [Example 120],1.67 nM,2.01 nM,–,–
CNC(=O)c1c(-c2ccc(F)cc2)oc2cc(N(C)S(C)(=O)=O)c(-c3ccc4nc(CN5CC[C@@H](F)C5)n5c6cccc(C#N)c6cc5c4n3)cc12 [Example 121],2.95 nM,3.25 nM,–,–
CNC(=O)c1c(-c2ccc(F)cc2)oc2cc(N(C)S(C)(=O)=O)c(-c3ccc4nc(CN5CCC(F)(F)C5)n5c6cccc(C#N)c6cc5c4n3)cc12 [Example 122],2.44 nM,3.46 nM,–,–
CNC(=O)c1c(-c2ccc(F)cc2)oc2cc(N(C)S(C)(=O)=O)c(-c3ccc4nc(CN5CCC(F)(F)CC5)n5c6cccc(C#N)c6cc5c4n3)cc12 [Example 123],6.91 nM,5.8 nM,–,–
CNC(=O)c1c(-c2ccc(F)cc2)oc2cc(N(C)S(C)(=O)=O)c(-c3ccc4nc(CN5CC(F)(F)C5)n5c6cccc(C#N)c6cc5c4n3)cc12 [Example 124],1.89 nM,1.76 nM,–,–
CNC(=O)c1c(-c2ccc(F)cc2)oc2cc(N(C)S(C)(=O)=O)c(-c3ccc4nc(CN5CC(OC)C5)n5c6cccc(C#N)c6cc5c4n3)cc12 [Example 125],2.32 nM,3.21 nM,–,–
CNC(=O)c1c(-c2ccc(F)cc2)oc2cc(N(C)S(C)(=O)=O)c(-c3ccc4nc(CN5CC(C)(OC)C5)n5c6cccc(C#N)c6cc5c4n3)cc12 [Example 126],2.24 nM,2.72 nM,–,–
CNC(=O)c1c(-c2ccc(F)cc2)oc2cc(N(C)S(C)(=O)=O)c(-c3ccc4nc(CN5CC6(CCOCC6)C5)n5c6cccc(C#N)c6cc5c4n3)cc12 [Example 127],1.5 nM,2.57 nM,–,–
CNC(=O)c1c(-c2ccc(F)cc2)oc2cc(N(C)S(C)(=O)=O)c(-c3ccc4nc(CN5CC(C)(F)C5)n5c6cccc(C#N)c6cc5c4n3)cc12 [Example 128],2.3 nM,2.98 nM,–,–
CNC(=O)c1c(-c2ccc(F)cc2)oc2cc(N(C)S(C)(=O)=O)c(-c3ccc4nc(CN5CCOC(C(F)(F)F)C5)n5c6cccc(C#N)c6cc5c4n3)cc12 (stereo not shown) [Example 129],5.68 nM,6.95 nM,–,–
CNC(=O)c1c(-c2ccc(F)cc2)oc2cc(N(C)S(C)(=O)=O)c(-c3ccc4nc(CN5CC(C)(C#N)C5)n5c6cccc(C#N)c6cc5c4n3)cc12 [Example 130],1.22 nM,1.39 nM,–,–
CNC(=O)c1c(-c2ccc(F)cc2)oc2cc(N(C)S(C)(=O)=O)c(-c3ccc4nc(CN5CC(O)(C(F)(F)F)C5)n5c6cccc(C#N)c6cc5c4n3)cc12 [Example 131],4.09 nM,4.23 nM,–,–

Compound,"IC50 [1, 3]","IC50 [2, 4]","IC50 ([1]; read-out: 1a IC50, genotype 1a replicon cells, 96 hours incubation, NS3/4A ELISA readout, % of DMSO control)","IC50 ([2]; read-out: 1b IC50, genotype 1b replicon cells, 96 hours incubation, NS3/4A ELISA readout, % of DMSO control)"
CNC(=O)c1c(-c2ccc(F)cc2)oc2cc(N(C)S(C)(=O)=O)c(-c3ccc4nc(CC5CC[C@H](OC)C5)n5c6cccc(C#N)c6cc5c4n3)cc12 (stereo partly shown) [Example 132],2.83 nM,3.5 nM,–,–
CNC(=O)c1c(-c2ccc(F)cc2)oc2cc(N(C)S(C)(=O)=O)c(-c3ccc4nc(CC5CC[C@@H](OC)C5)n5c6cccc(C#N)c6cc5c4n3)cc12 (stereo partly shown) [Example 133],2.98 nM,3.56 nM,–,–
CNC(=O)c1c(-c2ccc(F)cc2)oc2cc(N(C)S(C)(=O)=O)c(-c3ccc4nc(CN5CCOCC5)n5c6cccc(C#N)c6cc5c4n3)cc12 [Example 134],2.6 nM,2.02 nM,–,–
CNC(=O)c1c(-c2ccc(F)cc2)oc2cc(N(C)S(C)(=O)=O)c(-c3ccc4nc(CN5CC[C@@H](F)C5)n5c6cccc(C#N)c6cc5c4n3)cc12 [Example 135],–,–,2.71 nM,3.66 nM
CNC(=O)c1c(-c2ccc(F)cc2)oc2cc(N(C)S(C)(=O)=O)c(-c3ccc4nc(CN5CC(CC(F)(F)F)C5)n5c6cccc(C#N)c6cc5c4n3)cc12 [Example 136],6.6 nM,10.6 nM,–,–
CNC(=O)c1c(-c2ccc(F)cc2F)oc2cc(N(C)S(C)(=O)=O)c(-c3ccc4nc(CC5CC6(CNC(=O)C6)C5)n5c6cccc(F)c6cc5c4n3)cc12 (stereo not shown) [Example 137],6.67 nM,5.04 nM,–,–
CNC(=O)c1c(-c2ccc(F)cc2F)oc2cc(N(C)S(C)(=O)=O)c(-c3ccc4nc(CN5CC(C)(OC)C5)n5c6cccc(F)c6cc5c4n3)cc12 [Example 138],4.33 nM,4.59 nM,–,–
CNC(=O)c1c(-c2ccc(F)cc2F)oc2cc(N(C)S(C)(=O)=O)c(-c3ccc4nc(CN5CC(C)(C#N)C5)n5c6cccc(F)c6cc5c4n3)cc12 [Example 139],2.79 nM,3.16 nM,–,–
CNC(=O)c1c(-c2ccc(F)cc2F)oc2cc(N(C)S(C)(=O)=O)c(-c3ccc4nc(CN5CC(C)(F)C5)n5c6cccc(F)c6cc5c4n3)cc12 [Example 140],2.95 nM,4.31 nM,–,–
CNC(=O)c1c(-c2ccc(F)cc2F)oc2cc(N(C)S(C)(=O)=O)c(-c3ccc4nc(CN5CCC(F)(C#N)CC5)n5c6cccc(F)c6cc5c4n3)cc12 [Example 141],5.48 nM,5.99 nM,–,–
CNC(=O)c1c(-c2ccc(F)cc2F)oc2cc(N(C)S(C)(=O)=O)c(-c3ccc4nc(CN5CC(C)(O)C5)n5c6cccc(F)c6cc5c4n3)cc12 [Example 142],3.05 nM,2.85 nM,–,–
CNC(=O)c1c(-c2ccc(F)cc2F)oc2cc(N(C)S(C)(=O)=O)c(-c3ccc4nc(CN5CC(C(C)(C)O)C5)n5c6cccc(F)c6cc5c4n3)cc12 [Example 143],5.17 nM,6.21 nM,–,–
CNC(=O)c1c(-c2ccc(F)cc2F)oc2cc(N(C)S(C)(=O)=O)c(-c3ccc4nc(CN5CCC[C@@H]5C(F)(F)F)n5c6cccc(F)c6cc5c4n3)cc12 [Example 144],13.3 nM,14.6 nM,–,–
CNC(=O)c1c(-c2ccc(F)cc2F)oc2cc(N(C)S(C)(=O)=O)c(-c3ccc4nc(CN5CCC[C@H]5C(F)(F)F)n5c6cccc(F)c6cc5c4n3)cc12 [Example 145],20 nM,12.2 nM,–,–
CNC(=O)c1c(-c2ccc(F)cc2F)oc2cc(N(C)S(C)(=O)=O)c(-c3ccc4nc(CN5CC6CC5CO6)n5c6cccc(F)c6cc5c4n3)cc12 (stereo not shown) [Example 146],3.38 nM,3.38 nM,–,–
CNC(=O)c1c(-c2ccc(F)cc2F)oc2cc(N(C)S(C)(=O)=O)c(-c3ccc4nc(CN5CCN(C)CC5)n5c6cccc(F)c6cc5c4n3)cc12 [Example 147],3.48 nM,3.99 nM,–,–
CNC(=O)c1c(-c2ccc(F)cc2F)oc2cc(N(C)S(C)(=O)=O)c(-c3ccc4nc(CN5CCN(C(C)=O)CC5)n5c6cccc(F)c6cc5c4n3)cc12 [Example 148],2.52 nM,3.17 nM,–,–
CNC(=O)c1c(-c2ccc(F)cc2F)oc2cc(N(C)S(C)(=O)=O)c(-c3ccc4nc(CN5CC(S(C)(=O)=O)C5)n5c6cccc(F)c6cc5c4n3)cc12 [Example 149],3.38 nM,2.49 nM,–,–
CNC(=O)c1c(C2CC2)oc2cc(N(C)S(C)(=O)=O)c(-c3ccc4nc(CN5CC(F)C5)n5c6cccc(F)c6cc5c4n3)cc12 [Example 151],2.66 nM,3.43 nM,–,–
